Residue numbers refer to the chain shown, from its start.
Key:
Experiment in all cases: isothermal titration calorimetry
Assay type in all cases: binding
[1] = target: T1, 3β-OH-Δ^5-6-cholesterol-5β-reductase (5βChR); putative cholesterol dehydrogenase (Limosilactobacillus fermentum, UniProt A0ABF7R4H0, F190A); conditions: NADP+ titration; C-terminal substrate-pocket mutant
T1 sequence (A0ABF7R4H0 1-249 F190A): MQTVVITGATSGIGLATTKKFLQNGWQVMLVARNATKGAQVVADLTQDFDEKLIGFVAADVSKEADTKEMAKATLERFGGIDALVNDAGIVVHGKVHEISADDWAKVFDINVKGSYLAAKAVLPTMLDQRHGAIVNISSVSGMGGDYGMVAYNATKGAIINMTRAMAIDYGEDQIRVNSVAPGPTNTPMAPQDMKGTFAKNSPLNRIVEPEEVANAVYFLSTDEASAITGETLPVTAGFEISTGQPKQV

[2] = target: T2, 3β-OH-Δ^5-6-cholesterol-5β-reductase (5βChR); putative cholesterol dehydrogenase (Limosilactobacillus fermentum, UniProt A0ABF7R4H0, M189A); conditions: NADP+ titration; C-terminal substrate-pocket mutant
T2 sequence (A0ABF7R4H0 1-249 M189A): T1 sequence (A0ABF7R4H0 1-249 F190A) with M189A, A190F

[3] = target: T3, 3β-OH-Δ^5-6-cholesterol-5β-reductase (5βChR); putative cholesterol dehydrogenase (Limosilactobacillus fermentum, UniProt A0ABF7R4H0, T187A); conditions: NADP+ titration; C-terminal substrate-pocket mutant
T3 sequence (A0ABF7R4H0 1-249 T187A): T1 sequence (A0ABF7R4H0 1-249 F190A) with T187A, A190F

[4] = target: T4, 3β-OH-Δ^5-6-cholesterol-5β-reductase (5βChR); putative cholesterol dehydrogenase (Limosilactobacillus fermentum, UniProt A0ABF7R4H0, Y152A); conditions: catalytic tetrad mutant
T4 sequence (A0ABF7R4H0 1-249 Y152A): T1 sequence (A0ABF7R4H0 1-249 F190A) with Y152A, A190F

[5] = target: T5, 3β-OH-Δ^5-6-cholesterol-5β-reductase (5βChR); putative cholesterol dehydrogenase (Limosilactobacillus fermentum, UniProt A0ABF7R4H0, S139A); conditions: catalytic tetrad mutant
T5 sequence (A0ABF7R4H0 1-249 S139A): T1 sequence (A0ABF7R4H0 1-249 F190A) with S139A, A190F

Row | SMILES | Kd [1] [µM] | Kd [2] [µM] | Kd [3] [µM] | Kd [4] [µM] | Kd [5] [µM]
1 | NC(=O)c1ccc[n+]([C@@H]2O[C@H](COP(=O)(O)OP(=O)(O)OC[C@H]3O[C@@H](n4cnc5c(N)ncnc54)[C@H](OP(=O)(O)O)[C@@H]3O)[C@@H](O)[C@H]2O)c1 [NADP^+] | 5.2 | 7.49 | 8.77 |  | 
2 | CC(C)CCC[C@@H](C)[C@H]1CC[C@H]2[C@@H]3CC=C4C[C@@H](O)CC[C@]4(C)[C@H]3CC[C@]12C [cholesterol] |  |  |  | 4.44 | 24.8

Source: article doi:10.1101/2024.06.04.597308v2 (biorxiv, 2024)
